Test system: HLA-DQ2
Assay: Inhibition of IL-2 secretion by TCR transductants stimulated by α-gliadin peptides presented by HLA-DQ2 expressing K562 cells (ELISA)
Format: cell-based, human
Conditions: for DQ2 IL2 Maximal % Inhibition: IL-2 secretion, at the concentration given in brackets; for concentration at which the compound exhibited maximum % inhibition (DQ2 IL2): from dose-response curve, figure in brackets in the cell
Method: Three commercially available analogues of the DQ2 binding molecules of the invention were tested for their ability to inhibit stimulation of T cell receptor (TCR) transductants in the presence of HLA-DQ2 expressing cells presenting known α-gliadin epitopes.
Using a previously published in vitro assay (Ostrov D, et al. Methyldopa blocks MHC class II binding to disease specific antigens in autoimmune diabetes. J Clin Invest. 2018:128(5)) we measured the ability of these DQ2 binding analogues to inhibit interleukin-2 (IL-2) secretion by TCR transductants stimulated by α-gliadin peptides presented by HLA-DQ2. Individual TCR transductants (recognizing α I-gliadin or α II-gliadin) were cultured with a gliadin peptide plus the small molecule analogues in the presence of HLA-DQ2 expressing K562 cells serving as antigen presenting cells. TCR transductants cultured with no gliadin peptide served as the negative control, and incubation with an anti-CD3 antibody (eBioscience; clone 2C11) served as a positive control for the TCR transductant. Secreted IL-2 in the culture supernatant was measured using a highly sensitive enzyme-linked immunosorbent assay (ELISA). […] Assays for effects on cell viability and for specificity, assayed in the absence of gliadin peptide or in the presence of a stimulating anti-CD3 antibody, were performed. A=71-100%; B=41-70%; C=11-40%; D=0-10%, NT=Not tested.

[1] = TCR transductants (α I- or α II-gliadin) + gliadin peptide + HLA-DQ2 K562 cells
[2] = Table 2, TCR transductants + gliadin peptide + HLA-DQ2 K562 cells

SMILES	DQ2 IL2 Maximal % Inhibition [1]	concentration at which the compound exhibited maximum % inhibition (DQ2 IL2)	DQ2 IL2 Maximal % Inhibition [2]	concentration at which the compound exhibited maximum % inhibition (DQ2 IL2) (Table 2)
CCc1ccc(C(=O)NC2CCc3nn(CC(N)=O)c(=O)cc3C2)cc1 (stereo not shown) [Compound 38]	A (A=71-100%)	200 µM	–	–
CCn1nc2c(cc1=O)CC(NC(=O)c1ccc(C(C)C)cc1)CC2 (stereo not shown) [Compound 40]	B (B=41-70%)	200 µM	–	–
CCCn1nc2c(cc1=O)CC(NC(=O)c1ccc(C(C)C)cc1)CC2 (stereo not shown) [Compound 41]	A (A=71-100%)	200 µM	–	–
CNC(=O)Cn1nc2c(cc1=O)CC(NC(=O)c1ccc(C(C)C)cc1)CC2 (stereo not shown) [Compound 42]	A (A=71-100%)	200 µM	–	–
CC(C)c1ccc(C(=O)NC2CCc3nn(CC(=O)O)c(=O)cc3C2)cc1 (stereo not shown) [Compound 43]	A (A=71-100%)	200 µM	–	–
CC(C)c1ccc(C(=O)NC2CCc3nn(C(C)C)c(=O)cc3C2)cc1 (stereo not shown) [Compound 44]	A (A=71-100%)	200 µM	–	–
CC(C)c1ccc(C(=O)NC2CCc3nn(CC4CC4)c(=O)cc3C2)cc1 (stereo not shown) [Compound 45]	A (A=71-100%)	200 µM	–	–
CCCCn1nc2c(cc1=O)CC(NC(=O)c1ccc(C(C)C)cc1)CC2 (stereo not shown) [Compound 46]	B (B=41-70%)	200 µM	–	–
CC(C)c1ccc(C(=O)NC2CCc3nn(CC4CCC4)c(=O)cc3C2)cc1 (stereo not shown) [Compound 48]	A (A=71-100%)	100 µM	–	–
CC(C)c1ccc(C(=O)NC2CCc3nn(CC4CCCCC4)c(=O)cc3C2)cc1 (stereo not shown) [Compound 49]	A (A=71-100%)	200 µM	–	–
CC(C)c1ccc(C(=O)NC2CCc3nn(Cc4ccccc4)c(=O)cc3C2)cc1 (stereo not shown) [Compound 50]	A (A=71-100%)	200 µM	–	–
COCCn1nc2c(cc1=O)CC(NC(=O)c1ccc(C(C)C)cc1)CC2 (stereo not shown) [Compound 51]	B (B=41-70%)	200 µM	–	–
CC(C)c1ccc(C(=O)NC2CCc3nn(C4CC4)c(=O)cc3C2)cc1 (stereo not shown) [Compound 53]	A (A=71-100%)	200 µM	–	–
CC(C)c1ccc(C(=O)NC2CCc3nn(C4CCCCC4)c(=O)cc3C2)cc1 (stereo not shown) [Compound 54]	A (A=71-100%)	200 µM	–	–
CC(C)c1ccc(C(=O)NC2CCc3nn(C4CCOCC4)c(=O)cc3C2)cc1 (stereo not shown) [Compound 55]	A (A=71-100%)	200 µM	–	–
CC(C)c1ccc(C(=O)NC2CCc3nn(C4CCC4)c(=O)cc3C2)cc1 (stereo not shown) [Compound 56]	A (A=71-100%)	200 µM	–	–
CC(C)c1ccc(C(=O)NC2CCc3nn(CC(F)(F)F)c(=O)cc3C2)cc1 (stereo not shown) [Compound 57, 4-isopropyl-N-(3-oxo-2-(2,2,2-trifluoroethyl)-2,3,5,6,7,8-hexahydrocinnolin-6-yl)benzamide]	A (A=71-100%)	200 µM	–	–
CC(C)c1ccc(C(=O)NC2CCc3nn(CC(C)(C)O)c(=O)cc3C2)cc1 (stereo not shown) [Compound 58]	A (A=71-100%)	200 µM	–	–
CC(C)c1ccc(C(=O)NC2CCc3nn(C4CCCC4)c(=O)cc3C2)cc1 (stereo not shown) [Compound 59]	A (A=71-100%)	200 µM	–	–
CCc1ccc(C(=O)NC2CCc3n[nH]c(=O)cc3C2)cc1 (stereo not shown) [Compound 60]	–	–	A (A=71-100%)	200 µM
Cn1nc2c(cc1=O)CC(NC(=O)c1ccc3ccccc3n1)CC2 (stereo not shown) [Compound 61]	–	–	A (A=71-100%)	200 µM
CC(C)Oc1ccc(C(=O)NC2CCc3nn(C)c(=O)cc3C2)cc1 (stereo not shown) [Compound 62]	–	–	A (A=71-100%)	200 µM
Cn1nc2c(cc1=O)CC(NC(=O)c1cccc(C(F)(F)F)c1)CC2 (stereo not shown) [Compound 63]	–	–	A (A=71-100%)	200 µM

From patent publication US11939300B2, “Compounds and methods for treating autoimmune disorders by targeting HLA-DQ2” (ImmunoMolecular Therapeutics, Inc., priority 2020, dated 2024)
